Consider 15 compounds from US7045532B2 (Millennium Pharmaceuticals, Inc., priority 1999, dated 2006).

One test concerns the target T1, ACE-2 (Homo sapiens, UniProt Q9BYF1).
T1 construct: a stop codon inserted after the serine immediately preceding the transmembrane domain; made in house; host or cells: CHO K1 cells (transient transfection, purified from conditioned medium)
Description: ACE-2 Competitive Substrate Assay (ACS Assay). The format is biochemical. The conditions noted are these: Ki class; compounds tested in 5% DMSO, 12 concentrations; read-out: Human ACE-2 Activity.

For the next test, the target named is T2, ACE (Sigma, A2580) (Sus scrofa, UniProt F1RRW5).
T2 construct: ACE from porcine kidney; purchased Sigma A2580; host or cells: porcine kidney
T2 sequence (F1RRW5 34-1309): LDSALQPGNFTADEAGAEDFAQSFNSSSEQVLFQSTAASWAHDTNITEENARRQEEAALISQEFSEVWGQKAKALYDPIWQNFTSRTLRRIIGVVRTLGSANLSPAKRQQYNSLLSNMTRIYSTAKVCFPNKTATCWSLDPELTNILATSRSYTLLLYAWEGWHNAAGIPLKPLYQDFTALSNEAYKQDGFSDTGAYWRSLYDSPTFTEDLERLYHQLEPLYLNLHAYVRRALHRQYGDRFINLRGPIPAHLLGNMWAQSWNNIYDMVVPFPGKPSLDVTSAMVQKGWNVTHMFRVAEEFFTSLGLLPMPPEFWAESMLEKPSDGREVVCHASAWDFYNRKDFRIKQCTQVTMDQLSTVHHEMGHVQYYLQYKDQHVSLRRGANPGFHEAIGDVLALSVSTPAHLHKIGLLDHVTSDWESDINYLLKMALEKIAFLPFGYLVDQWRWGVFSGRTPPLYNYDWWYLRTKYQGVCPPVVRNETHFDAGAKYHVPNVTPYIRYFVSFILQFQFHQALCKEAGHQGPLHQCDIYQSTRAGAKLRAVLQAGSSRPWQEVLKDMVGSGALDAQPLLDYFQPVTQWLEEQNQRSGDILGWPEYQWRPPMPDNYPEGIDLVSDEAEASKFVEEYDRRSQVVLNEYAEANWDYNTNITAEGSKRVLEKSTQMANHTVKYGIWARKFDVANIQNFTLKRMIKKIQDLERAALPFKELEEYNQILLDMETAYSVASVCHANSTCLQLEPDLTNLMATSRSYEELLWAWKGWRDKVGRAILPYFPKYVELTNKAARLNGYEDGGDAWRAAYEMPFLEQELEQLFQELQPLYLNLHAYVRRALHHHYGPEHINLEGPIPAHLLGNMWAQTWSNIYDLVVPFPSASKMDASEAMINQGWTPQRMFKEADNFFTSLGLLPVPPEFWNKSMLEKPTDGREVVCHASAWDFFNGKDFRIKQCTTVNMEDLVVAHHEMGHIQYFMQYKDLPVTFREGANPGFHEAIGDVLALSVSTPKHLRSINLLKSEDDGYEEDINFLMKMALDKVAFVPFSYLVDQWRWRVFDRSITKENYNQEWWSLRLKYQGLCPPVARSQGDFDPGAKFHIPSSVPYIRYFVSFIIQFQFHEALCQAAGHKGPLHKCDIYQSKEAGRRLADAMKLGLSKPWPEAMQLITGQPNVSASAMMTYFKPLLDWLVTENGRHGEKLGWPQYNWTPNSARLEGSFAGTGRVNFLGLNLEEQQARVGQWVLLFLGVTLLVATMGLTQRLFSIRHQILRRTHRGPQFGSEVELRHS
Description: ACE enzymatic activity assay. The conditions noted are these: Ki class; compounds tested in 5% DMSO, 12 concentrations. The format is biochemical, porcine. The method in brief:
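Fluorogenic substrate cleavage by 1 nM ACE, read at 320/405 nm after EDTA stop at ~30 min. Reactions at 25 °C, pH 7.5, in HEPES/NaCl/Brij-35 buffer; compounds tested at 12 concentrations in 5% DMSO.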

In a further test the target is T3, Carboxypeptidase A (Bos taurus, UniProt P00730).
T3 sequence (P00730 111-419): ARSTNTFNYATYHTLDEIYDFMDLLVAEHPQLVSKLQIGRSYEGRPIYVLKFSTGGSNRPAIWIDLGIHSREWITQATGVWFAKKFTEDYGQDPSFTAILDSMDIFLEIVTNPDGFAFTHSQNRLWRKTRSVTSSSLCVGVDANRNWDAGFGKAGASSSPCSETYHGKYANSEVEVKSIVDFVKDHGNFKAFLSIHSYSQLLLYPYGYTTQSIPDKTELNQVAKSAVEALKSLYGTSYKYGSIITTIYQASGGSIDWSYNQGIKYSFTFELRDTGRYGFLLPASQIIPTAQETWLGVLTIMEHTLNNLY
Put plainly: Carboxypeptidase A activity assay. The format is biochemical. Particulars: Ki class; compounds tested in 5% DMSO, 12 concentrations. The essentials:
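Ki obtained by correcting apparent Ki for substrate, Ki=Kiapp/(1+[S]/Km), from 12-concentration series. Enzyme activity read by absorbance at 328 nm with 5% DMSO present, EDTA stop.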

T1 sequence (Q9BYF1 18-740 limits assumed): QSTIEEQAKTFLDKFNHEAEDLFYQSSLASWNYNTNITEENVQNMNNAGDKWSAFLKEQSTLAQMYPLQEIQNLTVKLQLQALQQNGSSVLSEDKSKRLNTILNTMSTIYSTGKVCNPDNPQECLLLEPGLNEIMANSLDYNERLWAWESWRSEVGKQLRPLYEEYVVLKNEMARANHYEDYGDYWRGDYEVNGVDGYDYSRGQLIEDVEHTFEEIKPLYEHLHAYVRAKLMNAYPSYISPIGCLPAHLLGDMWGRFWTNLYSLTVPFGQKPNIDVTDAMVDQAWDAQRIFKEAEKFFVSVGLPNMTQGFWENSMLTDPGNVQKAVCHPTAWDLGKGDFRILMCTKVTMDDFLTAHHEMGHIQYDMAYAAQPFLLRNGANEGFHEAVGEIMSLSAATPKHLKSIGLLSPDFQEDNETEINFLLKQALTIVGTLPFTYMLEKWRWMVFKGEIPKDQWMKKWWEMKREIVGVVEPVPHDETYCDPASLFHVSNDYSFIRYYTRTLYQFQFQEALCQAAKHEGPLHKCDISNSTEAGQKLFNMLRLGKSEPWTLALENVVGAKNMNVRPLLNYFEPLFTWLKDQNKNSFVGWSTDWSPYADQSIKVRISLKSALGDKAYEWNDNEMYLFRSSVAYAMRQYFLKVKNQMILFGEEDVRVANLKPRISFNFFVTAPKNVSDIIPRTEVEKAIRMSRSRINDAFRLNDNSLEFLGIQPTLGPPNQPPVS

Turning to `CC(C)C[C@@H](N[C@H](Cc1cscn1)C(=O)O)C(=O)O` [CO, 2-(1-Carboxy-2-thiazol-4-yl-ethylamino)-4-methyl-pentanoic acid], the Ki at ACE-2 is over 0.5 µM; at ACE (Sigma, A2580), over 50 µM; at Carboxypeptidase A, over 50 µM.
For the compound `CC(C)CC(NC(CC(=O)O)c1ccccc1)C(=O)O` (stereo not drawn) [CQ, 2-(2-Carboxy-1-phenyl-ethylamino)-4-methyl-pentanoic acid], the Ki at ACE-2 is over 0.5 µM; at ACE (Sigma, A2580), over 50 µM; on Carboxypeptidase A it was over 50 µM.
As to `Cc1ccc(C[C@H](CC(=O)O)NC(CC(C)C)C(=O)O)cc1` (stereo partly drawn) [CS, 2-[2-Carboxy-1-(4-methyl-benzyl)-ethylamino]-4-methyl-pentanoic acid], the Ki was over 0.5 µM on ACE-2; over 50 µM at ACE (Sigma, A2580); over 50 µM at Carboxypeptidase A.
`CC(C)C[C@H](NCCCc1ccccc1)C(=O)O` [CY, 4-Methyl-2-(3-phenyl-propylamino)-pentanoicacid]: the Ki was over 0.5 µM on ACE-2; over 50 µM at ACE (Sigma, A2580); over 50 µM at Carboxypeptidase A.
For `CC(C)C[C@H](N[C@@H](CCc1ccccc1)C(=O)O)C(=O)OC(C)(C)C` [CZ, 2-(1-Carboxy-3-phenyl-propylamino)-4-methyl-pentanoic acid tert-butyl ester], the Ki was over 0.5 µM on ACE-2; over 50 µM on ACE (Sigma, A2580); over 50 µM on Carboxypeptidase A.
Take `CC(C)C[C@H](N[C@H](CCc1ccccc1)C(=O)O)C(=O)OC(C)(C)C` [DA, 2-(1-Carboxy-3-phenyl-propylamino)-4-methyl-pentanoic acid tert-butyl ester]: the Ki was over 0.5 µM on ACE-2; over 50 µM on ACE (Sigma, A2580); over 50 µM at Carboxypeptidase A.
As for `CC(C)C[C@H](N[C@@H](CCc1ccccc1)C(=O)O)C(N)=O` [DB, 2-(1-Carbamoyl-3-methyl-butylamino)-4-phenyl-butync acid], the Ki was over 0.5 µM on ACE-2; over 50 µM at ACE (Sigma, A2580); over 50 µM on Carboxypeptidase A.
As for `CC(C)C[C@H](N[C@H](CCc1ccccc1)C(=O)O)C(N)=O` [DC, 2-(1-Carbamoyl-3-methyl-butylamino)-4-phenyl-butync acid], the Ki at ACE-2 is over 0.5 µM; on ACE (Sigma, A2580) it was over 50 µM; on Carboxypeptidase A it was over 50 µM.
As for `COC(=O)[C@H](CC(C)C)NC(=O)NCc1ccccc1` [DF, 2-(3-Benzyl-ureido)-4-methyl-pentanoic acidmethyl ester], the Ki was over 0.5 µM at ACE-2; over 50 µM on ACE (Sigma, A2580); over 50 µM at Carboxypeptidase A.
Take `CC(C)CCNC(CCc1ccccc1)C(=O)O` (stereo not drawn) [DR, 2-(3-Methyl-butylamino)-4-phenyl-butync acid]: the Ki was over 0.5 µM at ACE-2; over 50 µM on ACE (Sigma, A2580); 10 to 50 µM on Carboxypeptidase A.
For the compound `CC(C)C[C@H](NC(=O)NCc1ccccc1)C(=O)O` [DU, 2-(3-Benzyl-ureido)-4-methyl-pentanoic acid], the Ki on ACE-2 is over 0.5 µM; at ACE (Sigma, A2580) it was over 50 µM; on Carboxypeptidase A, 10 to 50 µM.
The matching figures for `CC(C)C[C@H](NC(=O)NCCc1ccccc1)C(=O)O` [DV, 4-Methyl-2-(3-phenethyl-ureido)-pentanoic acid]: over 0.5 µM, over 50 µM and under 10 µM.
For the compound `CC(C)C[C@H](NCC(=O)c1ccccc1)C(=O)O` [DW, 4-Methyl-2-(2-oxo-2-phenyl-ethylamino)-pentanoic acid], the Ki is over 0.5 µM on ACE-2; over 50 µM on ACE (Sigma, A2580); under 10 µM at Carboxypeptidase A.
Consider `CC(C)CCN[C@@H](Cc1c[nH]cn1)C(=O)O` [DY, 3-(1H-Imidazol-4-yl)-2-(3-methyl-butylamino)-propionic acid], for which the Ki on ACE-2 is over 0.5 µM; on ACE (Sigma, A2580) it was over 50 µM; at Carboxypeptidase A, over 50 µM.
Turning to `CC(C)CC(NCCc1c[nH]cn1)C(=O)O` (stereo not drawn) [DZ, 2-[2-(1H-imidazol-4-yl)-ethylamino]-4-methyl-pentanoic acid], the Ki at ACE-2 is over 0.5 µM; on ACE (Sigma, A2580) it was over 50 µM; on Carboxypeptidase A, over 50 µM.
